In PubChem BioAssay AID330 (DTP/NCI, 2004) one finds T/C data, which are given here for 26 compounds.

The test system of the experiment is P388 leukemia ip, CD2F1 mice, survival T/C. The experiment is described as follows: NCI In Vivo Anticancer Drug Screen. Data for tumor model P388 Leukemia (intraperitoneal) in CD2F1 (CDF1) mice. Conditions: endpoint: median survival time, higher = longer survival. Summed up:
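Mice carrying the transplanted tumor received test compound or vehicle. Survival was recorded in each group, and the value is the treated-group measurement divided by that of the vehicle-treated control group.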

Setting [1] is: dose: 6.25 mg/kg/injection, schedule: Q01DX009 (ip), vehicle: Klucel (hydroxypropylcellulose) (HPC).
Setting [2] is: dose: 25.0 mg/kg/injection, schedule: Q01DX009 (ip), vehicle: Klucel (hydroxypropylcellulose) (HPC).
Setting [3] is: dose: 50.0 mg/kg/injection, schedule: Q01DX009 (ip), vehicle: Klucel (hydroxypropylcellulose) (HPC).
Where [4] appears, read: dose: 50.0 mg/kg/injection, schedule: Q01DX005 (ip), vehicle: saline with Tween-80.
The mark [5] stands for this setting: dose: 100.0 mg/kg/injection, schedule: Q01DX005 (ip), vehicle: saline with Tween-80.
The mark [6] stands for this setting: dose: 60.0 mg/kg/injection, schedule: Q01DX005 (ip), vehicle: saline with Tween-80.
Setting [7] is: dose: 120.0 mg/kg/injection, schedule: Q01DX005 (ip), vehicle: saline with Tween-80.
Where [8] appears, read: dose: 240.0 mg/kg/injection, schedule: Q01DX005 (ip), vehicle: saline with Tween-80.
[9] abbreviates: dose: 60.0 mg/kg/injection, schedule: Q01DX005 (ip), vehicle: Klucel (hydroxypropylcellulose) (HPC).
Where [10] appears, read: dose: 120.0 mg/kg/injection, schedule: Q01DX005 (ip), vehicle: Klucel (hydroxypropylcellulose) (HPC).
The mark [11] stands for this setting: dose: 200.0 mg/kg/injection, schedule: Q01DX005 (ip), vehicle: saline with Tween-80.
Setting [12] is: dose: 100.0 mg/kg/injection, schedule: Q01DX009 (ip), vehicle: saline with Tween-80.
Where [13] appears, read: dose: 200.0 mg/kg/injection, schedule: Q01DX009 (ip), vehicle: saline with Tween-80.
[14] abbreviates: dose: 50.0 mg/kg/injection, schedule: Q01DX005 (ip), vehicle: Klucel (hydroxypropylcellulose) (HPC).
The mark [15] stands for this setting: dose: 100.0 mg/kg/injection, schedule: Q01DX005 (ip), vehicle: Klucel (hydroxypropylcellulose) (HPC).

Inconclusive results and toxic doses are left out.

In the case of `CCCCOc1ccc(C(=O)OCCNC2CCCCC2)cc1N`, the T/C under setting [1] is 100 % of control; the T/C (dose: 12.5 mg/kg/injection, schedule: Q01DX009 (ip), vehicle: Klucel (hydroxypropylcellulose) (HPC)) is 101 % of control; the T/C under setting [2] is 93 % of control; the T/C under setting [3] is 91 % of control.
On to `Cc1noc(NS(=O)(=O)c2ccc(N=c3c4ccccc4n(-c4ccccc4)c4ccccc34)cc2)c1C`, for which the T/C reads like this: under setting [4], 97 % of control; under setting [5], 100 % of control.
For the compound `COC1(OC)C=NNc2nccn21`, the T/C runs as follows: under setting [6], 100 % of control; under setting [7], 96 % of control; under setting [8], 104 % of control.
On to `Cc1c(Br)c(C)[n+]([O-])n1O`, for which the T/C by setting is: under setting [9], 99 % of control; under setting [10], 95 % of control.
With `CCCCc1c(O)nc2nc(-c3ccccc3)c(-c3ccccc3)nn2c1=O`, the T/C is, setting by setting: (dose: 3.12 mg/kg/injection, schedule: Q01DX005 (ip), vehicle: Klucel (hydroxypropylcellulose) (HPC)) 107 % of control; (dose: 6.25 mg/kg/injection, schedule: Q01DX005 (ip), vehicle: Klucel (hydroxypropylcellulose) (HPC)) 103 % of control; (dose: 12.5 mg/kg/injection, schedule: Q01DX005 (ip), vehicle: Klucel (hydroxypropylcellulose) (HPC)) 94 % of control.
Turning to `[Cl][Pt+2][Cl].[NH-]c1cccc(F)c1.[NH-]c1cccc(F)c1`, the T/C is 158 % of control (dose: 3.12 mg/kg/injection, schedule: Q01DX009 (ip), vehicle: Klucel (hydroxypropylcellulose) (HPC)) and 155 % of control under setting [1].
For the compound `N#CC1=C(NC(N)=O)CCCC1`, the T/C runs as follows: under setting [9], 106 % of control; under setting [10], 100 % of control; (dose: 240.0 mg/kg/injection, schedule: Q01DX005 (ip), vehicle: Klucel (hydroxypropylcellulose) (HPC)) 106 % of control.
As to `CN1C(=O)N(C)C2(C(=O)N(C)C(=S)N2C)N(C)C1=O`, the T/C runs as follows: under setting [6], 95 % of control; under setting [7], 103 % of control; under setting [8], 102 % of control.
Take `CCCCOC1=NC2C(=O)NCC2CO1` (stereo unspecified): the T/C is, setting by setting: under setting [4], 97 % of control; under setting [5], 94 % of control; under setting [11], 97 % of control.
In the case of `Cc1cc(N=[N+]=[N-])c2cc(C3CCCCC3)ccc2n1`, the T/C reads like this: under setting [6], 94 % of control; under setting [7], 93 % of control; under setting [8], 92 % of control.
As for `CCCCCCC(=O)c1c(O)c2ccccc2oc1=O`, the T/C runs as follows: under setting [6], 100 % of control; under setting [7], 88 % of control.
For `Cc1ccc(NC(=O)Oc2ccc(Cl)c(C)c2)c([N+](=O)[O-])c1`, the T/C was 87 % of control under setting [12] and 88 % of control under setting [13].
As to `CCCCCCOC(=O)C(N)Cc1ccc(N(CCCl)CCCl)cc1` (stereo unspecified), the T/C reads like this: (dose: 1.28 mg/kg/injection, schedule: Q01DX009 (ip), vehicle: saline) 245 % of control; (dose: 2.55 mg/kg/injection, schedule: Q01DX009 (ip), vehicle: saline) 322 % of control; (dose: 3.2 mg/kg/injection, schedule: Q03HX008 (ip), vehicle: saline) 165 % of control; (dose: 5.1 mg/kg/injection, schedule: Q01DX009 (ip), vehicle: saline) 118 % of control; (dose: 6.4 mg/kg/injection, schedule: Q03HX008 (ip), vehicle: saline) 180 % of control; (dose: 10.2 mg/kg/injection, schedule: Q01DX009 (ip), vehicle: saline) 86 % of control. For the same compound, the T/C (dose: 12.8 mg/kg/injection, schedule: Q03HX008 (ip), vehicle: saline) was 295 % of control; the T/C (dose: 25.5 mg/kg/injection, schedule: Q03HX008 (ip), vehicle: saline) was 600 % of control; the T/C (dose: 51.0 mg/kg/injection, schedule: Q03HX008 (ip), vehicle: saline) was 600 % of control.
On to `COC1OC(COS(=O)(=O)c2ccc(C)cc2)C2OC(C)(C)OC12` (stereo unspecified), for which the T/C under setting [14] was 95 % of control and the T/C under setting [15] is 100 % of control.
For the compound `COc1c(Cl)ncnc1Cl`, the T/C by setting is: under setting [2], 100 % of control; under setting [3], 103 % of control; (dose: 100.0 mg/kg/injection, schedule: Q01DX009 (ip), vehicle: Klucel (hydroxypropylcellulose) (HPC)) 110 % of control; (dose: 200.0 mg/kg/injection, schedule: Q01DX009 (ip), vehicle: Klucel (hydroxypropylcellulose) (HPC)) 98 % of control.
Regarding `O=c1oc(-c2ccccc2CCl)nc2ccccc12`, the T/C reads like this: (dose: 50.0 mg/kg/injection, schedule: Q01DX009 (ip), vehicle: saline with Tween-80) 106 % of control; under setting [12], 104 % of control; under setting [13], 101 % of control.
Regarding `FC(F)(F)COP(=S)(OCC(F)(F)F)OCC(F)(F)F`, the T/C is 107 % of control under setting [4], 108 % of control under setting [5] and 110 % of control under setting [11].
For `Cc1nc2cc3c(=O)n(C)cnc3cc2n1Cc1ccccc1`, the T/C runs as follows: (dose: 12.5 mg/kg/injection, schedule: Q04DX002 (ip), vehicle: Klucel (hydroxypropylcellulose) (HPC)) 104 % of control; (dose: 25.0 mg/kg/injection, schedule: Q04DX002 (ip), vehicle: Klucel (hydroxypropylcellulose) (HPC)) 104 % of control; (dose: 50.0 mg/kg/injection, schedule: Q04DX002 (ip), vehicle: Klucel (hydroxypropylcellulose) (HPC)) 107 % of control.
Take `CCC(CC)C1SCC(=O)N1c1nncs1` (stereo unspecified): the T/C by setting is: under setting [4], 99 % of control; under setting [5], 105 % of control; under setting [11], 102 % of control.
Turning to `CC(=O)NCC1(C)CCCC2(C)C3=CC(=O)C(C(C)C)=CC3(O)CCC12` (stereo unspecified), the T/C runs as follows: (dose: 100.0 mg/kg/injection, schedule: Q01DX001 (ip), vehicle: Klucel (hydroxypropylcellulose) (HPC)) 98 % of control; (dose: 200.0 mg/kg/injection, schedule: Q01DX001 (ip), vehicle: Klucel (hydroxypropylcellulose) (HPC)) 90 % of control; (dose: 400.0 mg/kg/injection, schedule: Q01DX001 (ip), vehicle: Klucel (hydroxypropylcellulose) (HPC)) 94 % of control.
Turning to `CCCCC(CC1CCCCC1)C(=O)O` (stereo unspecified), the T/C reads like this: (dose: 50.0 mg/kg/injection, schedule: Q01DX001 (ip), vehicle: saline with Tween-80) 113 % of control; (dose: 100.0 mg/kg/injection, schedule: Q01DX001 (ip), vehicle: saline with Tween-80) 109 % of control; (dose: 200.0 mg/kg/injection, schedule: Q01DX001 (ip), vehicle: saline with Tween-80) 109 % of control.
Consider `CC12CCC3c4ccc(OC(=O)C56C=CC(=O)C5C5C=CC6CC5)cc4CCC3C1CCC2=O` (stereo unspecified), for which the T/C runs as follows: (dose: 25.0 mg/kg/injection, schedule: Q01DX005 (ip), vehicle: distilled water + Tween-80) 91 % of control; (dose: 50.0 mg/kg/injection, schedule: Q01DX005 (ip), vehicle: distilled water + Tween-80) 95 % of control; (dose: 100.0 mg/kg/injection, schedule: Q01DX005 (ip), vehicle: distilled water + Tween-80) 87 % of control; (dose: 200.0 mg/kg/injection, schedule: Q01DX005 (ip), vehicle: distilled water + Tween-80) 95 % of control.
`CCN(CC)Cc1c(O)ccc2c3c(c(=O)oc12)CCCC3`: the T/C was 101 % of control (dose: 8.0 mg/kg/injection, schedule: Q01DX009 (ip), vehicle: Klucel (hydroxypropylcellulose) (HPC)); 102 % of control (dose: 16.0 mg/kg/injection, schedule: Q01DX009 (ip), vehicle: Klucel (hydroxypropylcellulose) (HPC)); 101 % of control (dose: 32.0 mg/kg/injection, schedule: Q01DX009 (ip), vehicle: Klucel (hydroxypropylcellulose) (HPC)).
For `O=[N+]([O-])c1ccc(/C=N/NC(=S)NC23CC4CC(CC(C4)C2)C3)o1`, the T/C is, setting by setting: under setting [14], 92 % of control; under setting [15], 103 % of control; (dose: 200.0 mg/kg/injection, schedule: Q01DX005 (ip), vehicle: Klucel (hydroxypropylcellulose) (HPC)) 94 % of control.
Turning to `O=C(CCc1ccccc1C(=O)O)c1ccccc1O`, the T/C by setting is: under setting [4], 94 % of control; under setting [5], 105 % of control; under setting [11], 93 % of control.
In the case of `CCOC(=O)N(NC(=O)Nc1ccccc1)C(c1ccccc1)c1ccccc1`, the T/C (dose: 75.0 mg/kg/injection, schedule: Q01DX009 (ip), vehicle: saline with Tween-80) is 94 % of control; the T/C (dose: 150.0 mg/kg/injection, schedule: Q01DX009 (ip), vehicle: saline with Tween-80) was 94 % of control; the T/C (dose: 300.0 mg/kg/injection, schedule: Q01DX009 (ip), vehicle: saline with Tween-80) was 98 % of control.
